Counter-ions that a name gives are not always drawn.
system: Angiotensin II (aortic blood vessel of a rabbit); assay: Angiotensin II antagonistic effect, inhibition of A II-induced isometric tension change of isolated rabbit aortic blood vessel; assay type: cell-based; conditions: Oryctolagus cuniculus, 0.25 h; Concn. of drug substance 10^-5 M; A II 4×10^-9 M; 15 minutes treatment; read-out: Potency of inhibition
Experimental: Angiotensin II (hereinafter referred to briefly as A II) antagonistic effect of the compound (I) of the present invention (aortic blood vessel of a rabbit). The blood-vessel preparation and reaction were done in accordance with the method as described in "European Journal of Pharmacology", vol. 18, pp. 316 (1972). While employing A II in the concentration of 4×10^-9M, the potency of inhibition was calculated by the following equation from changes in isometric tension of the blood vessel brought about by A II and that found after treatment with a test drug substance for 15 minutes, respectively. [formula] where; T1 =Change in isometric tension of the blood vessel brought about by A II without treatment with a test drug substance (g) T2 =Change in tension found after treatment with a test drug substance (g)

| Compound | inhibition at 10 µM [%] |
| --- | --- |
| O=C(O)Cc1nc(-c2ccccc2)n(Cc2ccccc2)c1Cl | 10 |
| O=C(O)c1c(Cl)nc(-c2ccccc2)n1Cc1ccccc1 | 5 |
| O=C(O)CCc1c(Cl)nc(-c2ccccc2)n1Cc1ccccc1 | 13 |
| COC(=O)Cc1cnc(-c2ccccc2)n1Cc1ccc([N+](=O)[O-])cc1 | 38 |
| NC(=O)Cc1c(Cl)nc(-c2ccccc2)n1Cc1ccccc1 | 20 |
| CN(C)c1ccc(-c2nc(Cl)c(CC(N)=O)n2Cc2ccccc2)cc1 | 10 |
| CN(C)c1ccc(-c2nc(Cl)c(C(N)=O)n2Cc2ccccc2)cc1 | 18 |
| Cc1ccc(-c2ncc(CC(=O)O)n2Cc2ccccc2)cc1 | 5 |
| COc1ccc(-c2ncc(CC(=O)O)n2Cc2ccccc2)cc1 | 5 |
| CCCCn1c(-c2ccccc2)nc(Cl)c1CC(=O)O [1-n-butyl-4-chloro-2-phenylimidazole-5-acetic acid] | 25 |
| O=C(O)Cc1c(Cl)nc(-c2ccccc2)n1CCc1ccccc1 [4-chloro-2-phenyl-1-phenethylimidazole-5-acetic acid hydrochloride] | 12 |

same assay, conditions: Oryctolagus cuniculus, 0.25 h; Concn. of drug substance 10^-6 M; A II 4×10^-9 M; 15 minutes treatment; read-out: Potency of inhibition

| Compound | inhibition at 1 µM [%] |
| --- | --- |
| CCCCc1nc(CC(=O)O)c(Cl)n1Cc1ccccc1 | 22 |
| O=C(O)Cc1nc(C2CCCC2)n(Cc2ccccc2)c1Cl | 10 |
| CCCCc1nc(CC(=O)O)c(Cl)n1Cc1ccccc1Cl | 30 |
| CCCCc1nc(Cl)c(CC(N)=O)n1Cc1ccccc1 [1-Benzyl-2-butyl-4-chloroimidazole-5-acetamide] | 19 |
